Consider one molecule from patent US9522935B2, “Commands and method of treating cancer via RHO pathway” (priority 2013, dated 2016).

The structures appear in SMILES notation. A value given as a limit tells only on which side of the number the result lay.

Data set [1] concerns PancI (pancreatic cancer cell line). Nature of the data set: MTT assay, LD030 on PancI. In kind it is cell-based. The following applies: Homo sapiens, 48 hours, read-out: inhibition rate on cell growth. Here is the method:
(§1) MTT assay, a well known method known in the art, was used to analyze anticancer effects of compound LD030 on human cancer cell lines, such as, HepG2 (liver cancer cell line), PancI (pancreatic cancer cell line), NCI-H460 (lung cancer cell line), MCF-7 (breast adenocarcinoma cell line) and SF-268 (brain tumor cell lines). An LD030 solution was diluted gradually to obtain a serial of LD030 solutions with decreasing concentrations, which was used to treat various cancer cell lines mentioned above incubated in separate container. […] For incubating with HepG2 cell line, LD030's concentrations were 0.001 μM, 0.01 μM, 0.1 μM, 1 μM, 10 μM, 100 μM. For PancI cell line, the concentrations were 0.1 μM, 1 μM, 10 μM, 100 μM. For NCI-H460 cell line, the concentrations were 0.001 μM, 0.01 μM, 0.1 μM, 1 μM, 10 μM, 100 μM. For MCF-7 cell line, the concentrations were 0.001 μM, 0.01 μM, 0.1 μM, 1 μM, 10 μM, 100 μM. For SF-268 cell line, the concentrations were 0.001 μM, 0.01 μM, 0.1 μM, 1 μM, 10 μM, 100 μM.

Data set [2] in a line: Toxicity study of LD030 on BALB/c mice. It is filed as in vivo. Here is the method:
LD030 animal toxicity experiments were conducted in adult BALB/c mice. The mice were subject to a […] dosage of 1-16 mg/Kg via peritoneal injection. […] The results confirmed that at a dosage as high as 16 mg/Kg LD030 is safe to BALB/c. By short-term toxicological experiment, the half-lethal dose LD50 (under continuous treatment) is 4 mg/kg, and the median effective dose ED50 of 0.2 mg/kg, resulting in a therapeutic Index of 20 (that is, LD50/ED50≈20).

Data set [3] relates to MCF-7 (breast adenocarcinoma cell line). The experiment in a line: MTT assay, LD030 on MCF-7. It is filed as cell-based. Particulars: Homo sapiens, MCF7; MCF-7, 100 μM, 48 hours; read-out: inhibition rate on cell growth. Here is the method:
as §1

Data set [4] concerns allograft pancreatic cancer cell lines. Nature of the data set: Allograft pancreatic cancer cell lines in mouse model, tumor size. Particulars: 0.01 mg/kg intraperitoneal injection, three times a week. It is filed as in vivo. How it is done:
LD030's effect on the growth of allograft pancreatic cancer cell lines was further studied as follows: Each mouse model was given 0.01 mg/kg LD030 via intraperitoneal injection, three times a week. […] Extracted from the treated mouse and the control mouse, the phosphorylation-signal transduction and activator of transcription (p-STAT3), phospho-JAK2 (p-JAK2), Bcl-XL, apoptosis protease 3, 9 and GADPH (glyceraldehyde-3-phosphate dehydrogenase, or […]) were subject to protein electrophoresis. […] GADPH was used as an internal reference, the expression of which was basically unchanged.

Data set [5] relates to Jak/STAT phosphorylation in PancI cells. Nature of the data set: Western Blotting of signal pathway proteins in PancI cells. It is filed as cell-based, human.
For data set [6], the system named is NCI-H460 (lung cancer cell line). The experiment in a line: MTT assay, LD030 on NCI-H460. In kind it is cell-based. Particulars: Homo sapiens; NCI-H460, 100 μM, 48 hours; read-out: inhibition rate on cell growth. Here is the method: as §1
Data set [7] deals with HepG2 cells. Nature of the data set: Nude mouse model of hepatocellular carcinoma (HepG2), growth rate. It is filed as in vivo, nude mice. How it is done: In contrast, LD30 (1 mg/kg/time, twice a day) reduced the growth rate of HepG2 cells by about 63%, with statistical significance (p<0.05) when compared with the ethanol control.
LD030 was also compared with Nexavar for their effects on the growth rate of HepG2 cells.
A further study was conducted on liver cancer cell line in nude mice (HepG2), where Nexavar's dosage was 30 mg/kg, twice a day and LD030's dosage was 1 mg/kg, twice a day along with a blank control and a combination of LD030 and Nexavar. The result is shown in FIG. 21 where Nr stands for Nexavar. […] When compared with the blank, LD030's effect is statistically significant (p<0.05).

Data set [8] deals with HepG2 (liver cancer cell line). Nature of the data set: MTT assay, LD030 on HepG2. It is filed as cell-based. The following applies: Homo sapiens, 48 hours, read-out: inhibition rate on cell growth. Here is the method:
as §1

Another data set deals with HepG2. The experiment in a line: In vitro effects on growth of liver cancer cells (Table 4). It is filed as cell-based, human.
In data set [9] the test system is pancreatic cancer cell lines. Nature of the data set: Nude mouse model of pancreatic cancer (xenograft), tumor size. It is filed as in vivo, NOD/SCID mice. The following applies: 43 days; for tumor volume reduced: FIG. 15. Here is the method: Two strains of pancreatic cancer cell lines were selected to be grafted to nonobese diabetic/severe combined immunodeficient (NOD/SCID) mice, and the tumor was inoculated in mouse ventral sides. About two weeks, they were used as a nude mouse model of pancreatic cancer. […] Each of the above groups. The treatment continued for 43 days (gemcitabine alone group 2 times a week; other groups 3 times a week), and then tumor size was recorded as shown in FIG. 16. […] Further experiments were conducted to study the effects of the combinational use of LD030 with gemcitabine as compared being used alone on tumor inhibition. Four treatment groups were set up: (a) blank control, (2) gemcitabine (25 mg/kg/time, 2 times a week), (3) LD030 (0.5 mg/kg/time, 3 times a week), (4) LD030 (0.5 mg/kg/time, 3 times a week) together with gemcitabine (25 mg/kg/time, 2 times a week).

The test system of data set [10] is HepG2 cells. The experiment in a line: Flow cytometry (PI staining) for apoptosis of HepG2 cells. In kind it is cell-based, human. Particulars: HepG2, 24 hours, 0.03-17.5 μM. Here is the method: The study was conduct by using flow cytometry to detect apoptosis of HepG2 cells after being treated for 24 hours with LD030 at concentrations 0.03 μM, 0.14 μM, 0.7 μM, 3.5 μM, and 17.5 μM along with blank control. Then proceeded as follows:
1. Collect cells (1-5×10^6/mL), centrifuge at 500-1000 r/min for 5 min, and discard the culture medium.
2. Wash the cells with 3 ml PBS once.
3. Centrifuge to discard PBS, and add 70% ice-cold ethanol for fixation, 4° C., 1-2 hours.
4. Centrifuge to discard ethanol, and re-suspend in 3 ml PBS for 5 min.
5. Filter with a 400 mesh screen, and centrifuge 500-1000 r/min for 5 min to discard PBS.
6. Stain with 1 ml propidium iodide (Propidium Iodide, PI) at 4° C. in the dark for 30 min.
7. Conduct flow cytometry.

Where [11] appears, read: 50 μM, at 24 hours and 48 hours, versus blank control.

Regarding `CC(=O)OC(C)(C)C(=O)CCC(C)C1CC[C@@]2(C)C34CC[C@H]5C(C)(C)[C@@H](O)CC[C@]5(C)C3(CC[C@]12C)O4` (stereo partly shown) [LD030], the inhibition at 100 µM in data set [1], in data set [3], in data set [6] and in [8] was greater than 80% each time. Besides, in data set [2] (BALB/c, mouse, in vivo), the “therapeutic Index (LD50/ED50)” value is 20. Also, the LD50 in data set [2] (BALB/c, mouse, in vivo, short-term toxicological experiment, under continuous treatment, read-out: half-lethal dose LD50) worked out at 4 mg/kg. Besides, in data set [2] (Mus musculus, read-out: median effective dose ED50), the 50% effective dose (ED50) was found to be 0.2 mg/kg. The toxicity observed entry in data set [2] (adult BALB/c mice, 1-16 mg/Kg via peritoneal injection) is “No significant toxicity”. In addition, the survival result in [2] (adult BALB/c mice, 1-16 mg/Kg via peritoneal injection, after 14 days) is given as “still alive”. The “tumor size versus untreated control mouse” value in data set [4] is given as “significantly reduced”. In addition, the p-p38 protein expression result in [5] (20 μM, versus blank control) is “increased”. In [5] (setting [11]), the p-jak2 result was “significantly reduced”. For the same molecule, the “p-stat3 (tyr705)” value in data set [5] (setting [11]) was “significantly reduced”. Moreover, in data set [5] (50 μM, at 48 hours), the “expression of Cyclin B1” value was “decreased”. In the data set with HepG2 cells [7] (HepG2 in nude mice, LD030 1 mg/kg twice a day alone, FIG. 21), the “effect on the tumor cells” value was “inhibitory effect”. In the data set with HepG2 cells [7] (nude mouse model, 1 mg/kg, twice a day, versus blank carrier control), the “reduction of growth rate of HepG2 cells” value is “about 63%”. The IC50 in the data set on HepG2 (Homo sapiens, HepG2, in vitro growth of HepG2 liver cancer cells) stood at 1330 nM; in the data set on HepG2 (in vitro growth of HepG2 liver cancer cells), 1570 nM. The tumor volume reduced was 21% in data set [9] (0.5 mg/kg/time LD030, 3 time a week) and 62% in data set [9] (1 mg/kg/time LD030, 3 time a week). Also, in data set [9] (LD030 0.5 mg/kg/time, 3 times a week, FIG. 17), the tumor size reduced stood at 21%. Also, the “cell lysis by flow cytometry” value in the data set with HepG2 cells [10] was “greater proportions of cell lysis with increased LD030 concentrations”.
